Assay results published in ChEMBL document CHEMBL1201862, “PubChem BioAssay data set” (2004).
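48-hour exposure; five concentrations; linearly interpolated endpoints. GI50 marks 50% less growth.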 The source made the active and inactive calls. Cut-off read from the data, not from the text of the source: active = GI50 up to about 1.1 µM and inactive = higher.

Assays:
Assay in all cases: NCI anticancer screen, dose series, 48 h
786-0 = tested on: 786-0
A498 = tested on: A498
ACHN = tested on: ACHN
CCRF-CEM = tested on: CCRF-CEM
HCC 2998 = tested on: HCC 2998
HL-60 = tested on: HL-60
HOP-62 = tested on: HOP-62
HOP-92 = tested on: HOP-92
IGROV-1 = tested on: IGROV-1
NCI-H226 = tested on: NCI-H226
NCI-H460 = tested on: NCI-H460
NCI/ADR-RES = tested on: NCI/ADR-RES
OVCAR-3 = tested on: OVCAR-3
RXF 393 = tested on: RXF 393
SF-268 = tested on: SF-268
SF-539 = tested on: SF-539
SK-MEL-28 = tested on: SK-MEL-28
SK-MEL-5 = tested on: SK-MEL-5
SNB-75 = tested on: SNB-75
TK-10 = tested on: TK-10

| SMILES | GI50 (786-0) | GI50 (A498) | GI50 (ACHN) | GI50 (CCRF-CEM) | GI50 (HCC 2998) | GI50 (HL-60) | GI50 (HOP-62) | GI50 (HOP-92) | GI50 (IGROV-1) | GI50 (NCI-H226) | GI50 (NCI-H460) | GI50 (NCI/ADR-RES) | GI50 (OVCAR-3) | GI50 (RXF 393) | GI50 (SF-268) | GI50 (SF-539) | GI50 (SK-MEL-28) | GI50 (SK-MEL-5) | GI50 (SNB-75) | GI50 (TK-10) |
| --- | --- | --- | --- | --- | --- | --- | --- | --- | --- | --- | --- | --- | --- | --- | --- | --- | --- | --- | --- | --- |
| COc1ccccc1CNCc1nc2ccccc2[nH]1 | > 100 µM (inactive) | > 100 µM (inactive) | > 100 µM (inactive) | > 100 µM (inactive) | > 100 µM (inactive) | 80.5 µM (inactive) | > 100 µM (inactive) | > 100 µM (inactive) | > 100 µM (inactive) | > 100 µM (inactive) | > 100 µM (inactive) | > 100 µM (inactive) | > 100 µM (inactive) | > 100 µM (inactive) | > 100 µM (inactive) | > 100 µM (inactive) | > 100 µM (inactive) | 48.5 µM (inactive) | > 100 µM (inactive) | > 100 µM (inactive) |
| CCOCC(=O)N[C@H]1CCc2cc(OC(=O)COCC)c(OC)c(OC)c2-c2ccc(SC)c(=O)cc21 | 0.036 µM (active) | 0.0472 µM (active) | 0.0655 µM (active) | 0.0231 µM (active) | 0.0264 µM (active) | 0.00473 µM (active) | 0.0533 µM (active) | 0.0248 µM (active) | 0.0324 µM (active) | 0.0301 µM (active) | 0.0327 µM (active) | 1.87 µM (inactive) | 0.01 µM (active) | 0.021 µM (active) | 0.0384 µM (active) | 0.0172 µM (active) | 0.0143 µM (active) | 0.00478 µM (active) | 0.0461 µM (active) | 0.459 µM (active) |
| Cn1c2c3ccc(Cl)cc3nc-2c(Cl)c2ccccc21 | 15.5 µM (inactive) | 19.9 µM (inactive) | 13.5 µM (inactive) | 3.86 µM (inactive) | 5.38 µM (inactive) | 24.2 µM (inactive) | 16.4 µM (inactive) | 15.7 µM (inactive) | 16.6 µM (inactive) | 23 µM (inactive) | 12.7 µM (inactive) | 24.8 µM (inactive) | 14 µM (inactive) | 16.6 µM (inactive) | 14.2 µM (inactive) | 19.9 µM (inactive) | 17.7 µM (inactive) | 16.4 µM (inactive) | 17.1 µM (inactive) | 16.6 µM (inactive) |
| Cc1cc(O)cc(O)c1/N=N/c1ccc([N+](=O)[O-])cc1 | – | 18.4 µM (inactive) | 17.1 µM (inactive) | 5.69 µM (inactive) | 10.4 µM (inactive) | 5.16 µM (inactive) | > 100 µM (inactive) | 2.39 µM (inactive) | 16.1 µM (inactive) | – | 19.4 µM (inactive) | 10.6 µM (inactive) | > 100 µM (inactive) | 10.6 µM (inactive) | 9.86 µM (inactive) | 29 µM (inactive) | 16.6 µM (inactive) | 12.6 µM (inactive) | 18.5 µM (inactive) | 23.9 µM (inactive) |
| Cn1c(SCc2c[nH]c3ccccc23)nnc1-c1ccc(Cl)cc1Cl | 24.4 µM (inactive) | 16.3 µM (inactive) | 23.9 µM (inactive) | 12.8 µM (inactive) | 12 µM (inactive) | 10.4 µM (inactive) | 6.1 µM (inactive) | 12.6 µM (inactive) | 17.4 µM (inactive) | – | 12.5 µM (inactive) | 6.07 µM (inactive) | 12.1 µM (inactive) | 12.2 µM (inactive) | 23.9 µM (inactive) | 3.14 µM (inactive) | 36.2 µM (inactive) | 14.5 µM (inactive) | 1.29 µM (inactive) | 17.1 µM (inactive) |
| C#CCNC(CS)C(=O)O (stereo not drawn) | > 100 µM (inactive) | > 100 µM (inactive) | > 100 µM (inactive) | > 100 µM (inactive) | > 100 µM (inactive) | > 100 µM (inactive) | > 100 µM (inactive) | > 100 µM (inactive) | > 100 µM (inactive) | > 100 µM (inactive) | > 100 µM (inactive) | > 100 µM (inactive) | > 100 µM (inactive) | > 100 µM (inactive) | > 100 µM (inactive) | – | > 100 µM (inactive) | > 100 µM (inactive) | > 100 µM (inactive) | > 100 µM (inactive) |
| C[O+]=C1C=CC(=C2SC(c3ccccc3)(c3ccccc3)c3ccccc32)C=C1.[O-][Cl+3]([O-])([O-])[O-] | 17.2 µM (inactive) | 24 µM (inactive) | 24.8 µM (inactive) | 26.4 µM (inactive) | 26.5 µM (inactive) | 17 µM (inactive) | 28 µM (inactive) | 16.6 µM (inactive) | 33 µM (inactive) | 14.5 µM (inactive) | 14 µM (inactive) | 30.1 µM (inactive) | 16.1 µM (inactive) | 11.8 µM (inactive) | 29 µM (inactive) | 18.7 µM (inactive) | 21.1 µM (inactive) | 16.6 µM (inactive) | 26.9 µM (inactive) | 23.4 µM (inactive) |
| Nc1nc2[nH]c(=O)cnc2c(=O)[nH]1 [ISOXANTHOPTERIN] | – | > 125 µM (inactive) | – | > 125 µM (inactive) | > 125 µM (inactive) | > 125 µM (inactive) | > 125 µM (inactive) | > 125 µM (inactive) | > 125 µM (inactive) | > 125 µM (inactive) | > 125 µM (inactive) | > 125 µM (inactive) | > 125 µM (inactive) | > 125 µM (inactive) | > 125 µM (inactive) | > 125 µM (inactive) | > 125 µM (inactive) | > 125 µM (inactive) | > 125 µM (inactive) | – |
